Assay [1] addresses Human STING (hSTING, residues 155-341, wild-type sequence) (Homo sapiens, UniProt Q86WV6, H232R). The assay can be described thus: hSTING binding by differential scanning fluorimetry (DSF). The settings on record: for binding to human STING compared to the other diastereomer(s) of the same Example / thermal shift compared to ribose Example 5/Compound 23 in WO 2016/145102: in words. On the procedure:
Differential Scanning Fluorimetry (DSF)
Assay buffer: 20 mM Tris, 150 mM NaCl pH7.5
Target Protein: Human STING (hSTING, residues 155-341, wild-type sequence with N-terminal His8-tag and TEV-cleavage site, MW: 23601.5 Da)
Protein stock solution: c=309 μM stock solution in assay buffer
Final Assay concentrations of test compounds: 100 μM, 3 μM target protein, “5×” SYPR Orange
1) Compound stock solutions and dilutions thereof were prepared in assay buffer
2) 5 μl fluorescent dye stock solution (5000×SYPRO Orange) was mixed with 50 μl target protein (309 μM) and 945 μl buffer.
3) 2 μl of this protein-dye-mixture (25×SYPRO Orange and 15 μM Protein) was added to 8 μl compound solution.
4) Certain well positions were used as negative control.
5) The plates were prepared for duplicate measurement and centrifuged for 2 min at 1000 g.
6) In the measurement, 160 cycles of 0.5° C. were used (temperature ramp 15 s/cycle, 15° C. to 95° C.).
Data analysis: The dissociation curves were processed in Bio-Rad CFX Manager. Peak type was set to “negative”. In the case of Examples 1.1, 2.1, 3.1 and 4.1, at least two Tm measurements were averaged.
A general note: Differential scanning fluorimetry follows unfolding on heating by fluorescence.

Assay [2] has as its target T1, human STING protein in THP1-Blue ISG cells (Homo sapiens, UniProt Q86WV6, G230A/H232R/R293Q/R71H).
T1 construct: endogenous STING levels from the parental, unmodified THP1-Blue ISG cell lines; endogenous in cells; host or cells: THP1-Blue ISG cells
Description: In vitro cytokine induction, THP1-Blue ISG reporter cell assay (IRF-inducible SEAP). The assay is classed as cell-based. The settings on record: 24 hours incubation, SEAP OD at 620 nm. An excerpt: In Vitro Cytokine Induction
Activation of the STING protein expressed in THP1 cells results in an increase of interferon production. By the stable integration of an interferon regulatory factor (IRF)-inducible SEAP (secreted embryonic alkaline phosphatase) reporter construct the functional interferon signaling pathway can be monitored. Using Invivogen's QUANTI-Blue™ colorimetric enzyme assay and a suitable optical density (OD) reader the activity of SEAP can be detected and quantified. This technique could be used to characterize pharmacological modification of the STING protein.
Measurements of SEAP activity were performed in THP1-Blue ISG cells stably expressing the human STING protein and the IRF-inducible SEAP reporter construct. Cells were cultivated for expansion in RPMI1640 medium with 10% fetal calf serum, 50 μg/ml Penicillin-Streptomycin, 100 μg/ml Zeocin, and 100 μg/ml Normocin in a 37°, 95% humidity and 5% CO2 incubator. Assay-ready cells were stored as frozen stocks.
In preparation for the assay, the cells were thawed in Zeocin-/Normocin-free medium and were distributed into the assay plates with a density of 15000 cells/15 μL per well. Compounds were prepared by an 8- or 16-point serial dilution in 50% aqueous DMSO and a final dilution step into medium to ensure a final DMSO concentration of 0.5% in the assay. 5 μL of diluted compounds plus 5 μL medium were added to the plates, followed by a 24 hours incubation at 37° C.
At the day of the assay, 75 μl per well of Quanti-Blue reagent was added to all wells of the plate and the plate was incubated another 30 minutes at 37° C. The OD at 620 nm was measured on the EnVision reader (PerkinElmer). EC50 values and Hill slopes were derived from 8- or 16-point four parametric non-linear curve fittings with the Megalab software (Boehringer Ingelheim) using the OD at 620 nm.

Setting [3] is: 100 μM test compound, 3 μM target protein.
The mark [4] stands for this setting: 100 μM test compound, 3 μM target protein, Sodium Salt.

Chain of Human STING (hSTING, residues 155-341, wild-type sequence) (Q86WV6 155-341 H232R limits assumed): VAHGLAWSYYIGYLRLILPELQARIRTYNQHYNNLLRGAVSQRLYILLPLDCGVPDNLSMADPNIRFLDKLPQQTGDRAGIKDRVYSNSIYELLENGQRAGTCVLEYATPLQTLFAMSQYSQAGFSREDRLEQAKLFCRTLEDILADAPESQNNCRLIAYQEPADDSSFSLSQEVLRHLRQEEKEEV
T1 sequence (Q86WV6 whole entry R71H/G230A/H232R/R293Q): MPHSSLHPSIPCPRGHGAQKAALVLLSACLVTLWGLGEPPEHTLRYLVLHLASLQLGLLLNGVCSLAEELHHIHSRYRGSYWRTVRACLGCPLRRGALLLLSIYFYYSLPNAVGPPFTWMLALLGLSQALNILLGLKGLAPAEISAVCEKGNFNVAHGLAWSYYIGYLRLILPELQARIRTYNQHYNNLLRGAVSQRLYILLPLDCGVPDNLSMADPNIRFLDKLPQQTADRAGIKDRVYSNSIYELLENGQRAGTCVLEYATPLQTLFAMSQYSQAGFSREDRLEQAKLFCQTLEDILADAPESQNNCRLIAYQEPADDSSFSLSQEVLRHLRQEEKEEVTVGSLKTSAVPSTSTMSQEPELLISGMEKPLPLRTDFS

In the case of `Nc1ncnc2c1ncn2[C@@H]1O[C@@H]2COP(=O)(S)O[C@H]3[C@H]4OC[C@@]3(COP(=O)(S)O[C@H]2[C@H]1F)O[C@H]4n1cnc2c(N)ncnc21` (single isomer, unassigned) [Example 1.1, Cyclic (LNA-adenosine-(3′→5′)-phosphorothioate-2′-F-2′-deoxyadenosine-(3′→5′)-phosphorothioate)], the ΔTm at 100 µM in assay [1] (100 μM test compound, 3 μM target protein, read-out: hSTING Tm shift) is 27.6 °C. In addition, in assay [1], the “binding to human STING compared to the other diastereomer(s) of the same Example” value is given as “improved binding to human STING as compared to Example 1.2” and the “thermal shift compared to ribose Example 5/Compound 23 in WO 2016/145102” value (“thermal shift” for short) is “significantly larger thermal shifts”. Moreover, in assay [2], the midpoint of the response, the EC50, lay at 110 nM.
As for `Nc1ncnc2c1ncn2[C@@H]1O[C@@H]2COP(=O)(S)O[C@H]3[C@H]4OC[C@@]3(COP(=O)(S)O[C@H]2[C@H]1F)O[C@H]4n1cnc2c(N)ncnc21` (single isomer, unassigned) [Example 1.2, Cyclic (LNA-adenosine-(3′→5′)-phosphorothioate-2′-F-2′-deoxyadenosine-(3′→5′)-phosphorothioate)], the “hSTING Tm shift” value in assay [1] (setting [3]) was 21.0 °C. Besides, the EC50 (usually the concentration at which the effect is half-maximal) in assay [2] came out at 60 nM.
Regarding `Nc1nc2c(ncn2C2OC3COP(O)(=S)OC4C(COP(O)(=S)OC3C2F)OC(n2cnc3c(N)ncnc32)C4O)c(=O)[nH]1` (centres unmarked) [Example 5 Compound 23 in WO 2016/145102, 3′3′-RR-(2′F-G)(A), reference compound], the “hSTING Tm shift” value in assay [1] (setting [3]) was found to be 21.1 °C.
Consider “Cyclic (LNA-adenosine-(3′→5′)-phosphorothioate-2′-F-2′-deoxyguanosine-(3′→5′)-phosphorothioate), Sodium Salt [Example 2.1]”, for which the “hSTING Tm shift” value in assay [1] (setting [4]) was 30.3 °C. Besides, in assay [1], the “binding to human STING compared to the other diastereomer(s) of the same Example” value was “improved binding to human STING as compared to Example 2.2” and the “thermal shift” value is reported as “significantly larger thermal shifts”. Also, in assay [2] (Sodium Salt), the concentration for a half-maximal effect (EC50) is 140 nM.
Regarding “Cyclic (LNA-adenosine-(3′→5′)-phosphorothioate-2′-F-2′-deoxyguanosine-(3′→5′)-phosphorothioate), Sodium Salt [Example 2.2]”, in assay [1] (setting [4]), the “hSTING Tm shift” value amounted to 21.8 °C. The EC50 in assay [2] (Sodium Salt) was 50 nM.
As for “Cyclic (LNA-adenosine-(3′→5′)-phosphorothioate-2′-F-2′-deoxyinosine-(3′→5′)-phosphorothioate), Sodium Salt [Example 4.1]”, in assay [1] (setting [4]), the “hSTING Tm shift” value stood at 30.0 °C. Further, in assay [1], the “binding to human STING compared to the other diastereomer(s) of the same Example” value is reported as “improved binding to human STING as compared to Example 4.2” and the “thermal shift” value is listed as “significantly larger thermal shifts”. For the same molecule, the EC50 in assay [2] (Sodium Salt) is 170 nM.
In the case of “Cyclic (LNA-adenosine-(3′→5′)-phosphorothioate-2′-F-2′-deoxyinosine-(3′→5′)-phosphorothioate), Sodium Salt [Example 4.2]”, the “hSTING Tm shift” value in assay [1] (setting [4]) turned out to be 21.4 °C. Moreover, in assay [2] (Sodium Salt), the EC50 is 110 nM.
On to “Cyclic (LNA-guanosine-(3′→5′)-phosphorothioate-2′-F-2′-deoxyadenosine-(3′→5′)-phosphorothioate), Sodium Salt [Example 3.1]”, for which the “hSTING Tm shift” value in assay [1] (setting [4]) stood at 30.7 °C. Besides, in assay [1], the “binding to human STING compared to the other diastereomer(s) of the same Example” value is “improved binding to human STING as compared to other Example 3 diastereomers” and the “thermal shift” value is given as “significantly larger thermal shifts”. Also, the EC50 in assay [2] (Sodium Salt) was determined as 150 nM.
For the molecule “Cyclic (LNA-guanosine-(3′→5′)-phosphorothioate-2′-F-2′-deoxyadenosine-(3′→5′)-phosphorothioate), Sodium Salt [Example 3.2]”, the “hSTING Tm shift” value in assay [1] (setting [4]) was 22.4 °C. For the same molecule, in assay [2] (Sodium Salt), the EC50 is 70 nM.
Consider “Cyclic (LNA-guanosine-(3′→5′)-phosphorothioate-2′-F-2′-deoxyadenosine-(3′→5′)-phosphorothioate), Sodium Salt [Example 3.3]”, for which, in assay [1] (setting [4]), the “hSTING Tm shift” value is 21.6 °C. The EC50 in assay [2] (Sodium Salt) worked out at 130 nM.
In the case of “Cyclic (LNA-guanosine-(3′→5′)-phosphorothioate-2′-F-2′-deoxyadenosine-(3′→5′)-phosphorothioate), Sodium Salt [Example 3.4]”, the “hSTING Tm shift” value in assay [1] (setting [4]) was 10.9 °C. For the same molecule, the EC50 in assay [2] (Sodium Salt) worked out at 2000 nM.

(Values after patent US10392419B2, “Modified cyclic dinucleotide compounds” (Boehringer Ingelheim International GmbH, priority 2017, dated 2019).)
